In patent US11905281B2 (Amgen Inc., priority 2017, dated 2024):

Tests used:
[1] = system: Phosphorylation of ERK1/2 in A549 cells; assay: Phospho-ERK1/2 MSD Assay, A549 (Table 15 conditions: 4 hours compound treatment); type: cell-based; settings: Homo sapiens, A549, 4 h, EGF stimulation, read-out: p-ERK IC50 (A549)
Experimental: (§1) For compounds in Table 15, the following assay conditions were employed:
(§2) Phospho-ERK1/2 MSD Assay: MIA PaCa-2 (ATCC® CRL-1420™) and A549 (ATCC® CCL-185™) cells were cultured in RPMI 1640 Medium (ThermoFisher Scientific 11875093) containing 10% fetal bovine serum (ThermoFisher Scientific 16000044) and 1× penicillin-streptomycin-glutamine (ThermoFisher Scientific 10378016). Sixteen hours prior to compound treatment, MIA PaCa-2 or A549 cells were seeded in 96-well cell culture plates at a density of 25,000 cells/well and incubated at 37° C., 5% CO2. A compound dose-response titration was diluted in growth media, added to appropriate wells of a cell culture plate, and then incubated at 37° C., 5% CO2 for 4 hours. Following compound treatment, cells were stimulated with 10 ng/mL EGF (Roche 11376454001) for 10 min, washed with ice-cold Dulbecco's phosphate-buffered saline, no Ca^2+ or Mg^2+ (ThermoFisher Scientific 14190144), and then lysed in RIP A buffer (50 mM Tris-HCl pH 7.5, 1% Igepal, 0.5% sodium deoxycholate, 150 mM NaCl, and 0.5% sodium dodecyl sulfate) containing protease inhibitors (Roche 4693132001) and phosphatase inhibitors (Roche 4906837001). Cell lysates were stored frozen at −80° C. overnight. Phosphorylation of ERK1/2 in compound-treated lysates was assayed using Phospho-ERK1/2 Whole Cell Lysate kits (Meso Scale Discovery K151DWD) according to the manufacturer's protocol. Assay plates were read on a Meso Scale Discovery Sector Imager 6000, and data were analyzed using a 4-parameter logistic model to calculate IC50 values.

[2] = molecular target: T1, GDP-bound KRAS protein (aa 1-169), containing both G12C and C118A amino acid substitutions (Homo sapiens, UniProt P01116, C118A/G12C); assay: Coupled Nucleotide Exchange Assay (Table 15 conditions: 2 hours pre-incubation); type: biochemical; settings: 2 hours compound pre-incubation (Table 15 conditions)
T1 sequence (P01116 1-169 isoform P01116-2 G12C/C118A): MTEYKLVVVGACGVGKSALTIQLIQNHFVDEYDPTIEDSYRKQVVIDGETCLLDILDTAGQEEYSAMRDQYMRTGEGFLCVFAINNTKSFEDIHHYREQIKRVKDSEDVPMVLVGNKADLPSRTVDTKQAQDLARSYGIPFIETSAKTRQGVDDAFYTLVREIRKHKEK
Experimental: as §1
Following compound pre-incubation, purified SOS protein (aa 564-1049) and GTP (Roche 10106399001) were added to the assay wells and incubated for an additional hour. […] The assay plates were then read on a PerkinElmer EnVision Multilabel Reader, using AlphaScreen® technology, and data were analyzed using a 4-parameter logistic model to calculate IC50 values.

[3] = system: Phosphorylation of ERK1/2 in MIA PaCa-2 cells; assay: Phospho-ERK1/2 MSD Assay, MIA PaCa-2 (Table 15 conditions: 4 hours compound treatment); type: cell-based; settings: EGF stimulation, read-out: p-ERK IC50 (MIA PaCa-2)
Experimental: as §1, §2

[4] = system: Phosphorylation of ERK1/2 in A549 cells; assay: Phospho-ERK1/2 MSD Assay, A549 (Table 16 conditions: 2 hours compound treatment); type: cell-based; settings: Homo sapiens, 10 ng/mL EGF for 10 min, read-out: p-ERK IC50 (A549)
Experimental: (§3) For compounds in Table 16, the following assay conditions were employed:
as §2, with “for 2” for “for 4”, “4906837001). […]” for “4906837001). Cell lysates were stored frozen at −80° C. overnight. Phosphorylation of ERK1/2 in compound-treated lysates was assayed using Phospho-ERK1/2 Whole Cell Lysate kits (Meso Scale Discovery K151DWD) according to the manufacturer's protocol.”

[5] = molecular target: T1, GDP-bound KRAS protein (aa 1-169), containing both G12C and C118A amino acid substitutions; assay: Coupled Nucleotide Exchange Assay (Table 16 conditions: 5 min pre-incubation); type: biochemical; settings: 5 min compound pre-incubation; SOS-mediated nucleotide exchange, AlphaScreen
Experimental: as §3
The assay plates were then read on a PerkinElmer EnVision Multilabel Reader, using AlphaScreen® technology, and data were analyzed using a 4-parameter logistic model to calculate IC50 values.

[6] = system: Phosphorylation of ERK1/2 in MIA PaCa-2 cells; assay: Phospho-ERK1/2 MSD Assay, MIA PaCa-2 (Table 16 conditions: 2 hours compound treatment); type: cell-based; settings: 10 ng/mL EGF for 10 min, read-out: p-ERK IC50 (MIA PaCa-2)

SMILES: C=CC(=O)N1CCN(c2snc3c(F)c(-c4cc(O)cc5ccccc45)c(Cl)cc23)CC1CO (racemic) [Example 1-16, 1-(4-(5-chloro-7-fluoro-6-(3-hydroxy-1-naphthalenyl)-2,1-benzothiazol-3-yl)-2-(hydroxymethyl)-1-piperazinyl)-2-propen-1-one]
- IC50 [1]: > 100 µM
- Coupled exchange IC50 [2]: 0.492 µM

SMILES: C=CC(=O)N1CCN(c2snc3c(F)c(-c4c(C)ccc5[nH]ncc45)c(Cl)cc23)C(C(F)F)C1 (racemic) [Example 2-8, 1-(4-(5-chloro-7-fluoro-6-(5-methyl-1H-indazol-4-yl)-2,1-benzothiazol-3-yl)-3-(difluoromethyl)-1-piperazinyl)-2-propen-1-one]
- IC50 [1]: > 100 µM
- Coupled exchange IC50 [2]: 0.361 µM

SMILES: C=CC(=O)N1CCN(c2snc3c(F)c(-c4cc(O)cc5ccccc45)c(Cl)cc23)C(C(C)C)C1 (racemic) [Example 2-10, 1-(4-(5-chloro-7-fluoro-6-(3-hydroxy-1-naphthalenyl)-2,1-benzothiazol-3-yl)-3-(2-propanyl)-1-piperazinyl)-2-propen-1-one]
- IC50 ([3]; Homo sapiens, MIA PaCa-2, 4 h): 3.07 µM
- IC50 [1]: > 100 µM
- Coupled exchange IC50 [2]: 1.73 µM

SMILES: C=CC(=O)N1CCN(c2snc3c(F)c(-c4cc(O)cc5ccccc45)c(Cl)cc23)C(CF)C1 (racemic) [Example 7-2, 1-(4-(5-chloro-7-fluoro-6-(3-hydroxy-1-naphthalenyl)-2,1-benzothiazol-3-yl)-3-(fluoromethyl)-1-piperazinyl)-2-propen-1-one]
- IC50 [1]: > 100 µM
- Coupled exchange IC50 [2]: 0.180 µM

SMILES: C=CC(=O)N1CCN(c2nc(=O)n(-c3ccncc3C3CC3)c3cc(-c4c(O)cccc4F)c(Cl)cc23)[C@@H](C)C1 (single isomer, unassigned) [Example 9-7-2]
- IC50 [3]: 0.232 µM

SMILES: C=CC(=O)N1CCN(c2nnc(-c3c(C)ccc4[nH]ncc34)c3cc(-c4c(O)cccc4F)c(Cl)cc23)CC1 [Example 10-12, 1-(4-(7-chloro-6-(2-fluoro-6-hydroxyphenyl)-4-(5-methyl-1H-indazol-4-yl)-1-phthalazinyl)-1-piperazinyl)-2-propen-1-one]
- IC50 ([3]; Homo sapiens, MIA PaCa-2, 4 h): 22.6 µM

SMILES: C=CC(=O)N1CCN(c2nc(=O)n(-c3c(C)cccc3C(C)C)c3nc(-c4c(O)cccc4F)c(Cl)cc23)[C@@H](C)C1 [Example 39, 6-Chloro-7-(2-fluoro-6-hydroxyphenyl)-1-(2-methyl-6-(2-propanyl)phenyl)-4-((2S)-2-methyl-4-(2-propenoyl)-1-piperazinyl)pyrido[2,3-d]pyrimidin-2(1H)-one]
- IC50 [4]: > 100 µM
- IC50 [5]: 0.063 µM
- IC50 ([6]; MIA PaCa-2 cells): 0.029 µM

SMILES: C=CC(=O)N1CCN(c2nc(=O)n(-c3scnc3C(C)C)c3nc(-c4c(O)cccc4F)c(Cl)cc23)[C@@H](C)C1 [Example 48, 6-Chloro-7-(2-fluoro-6-hydroxyphenyl)-4-((2S)-2-methyl-4-(2-propenoyl)-1-piperazinyl)-1-(4-(2-propanyl)-1,3-thiazol-5-yl)pyrido[2,3-d]pyrimidin-2(1H)-one]
- IC50 [4]: > 10 µM
- IC50 [5]: 0.081 µM
- IC50 ([6]; Homo sapiens, MIA PaCa-2, MIA PaCa-2 cells): 0.063 µM
